“Also recorded” adds a separate entry of the source.
Key:
[1] = test system: neutrophils; assay: Respiratory burst activity, opsonized zymosan-induced chemiluminescence; type: cell-based, human; conditions: 3 mM UCA
Method: The respiratory burst activity was used as a measure of neutrophil function. The UCA isomers were tested in a chemiluminescence assay with opsonized zymosan as described (Kivistö et al. 1996). The peak values were recorded.
To examine how the cytosol-acidifying effect of UCA correlates with the previously reported inhibition of neutrophil respiratory burst activity, we measured the effect of 3 mM UCA on opsonized zymosan-induced chemiluminescence by the same batch of neutrophils and in the same experimental conditions described above, i.e. when the pH of the test solution was adjusted back to its initial level after UCA addition. […] In the same conditions, cis-UCA suppressed the respiratory burst activity by 15%±8.4% and 44%±1.3%, respectively. […] The corresponding inhibitions for cis-UCA were 41%±10% at pH 6.60±0.02 (nominal pH 7.4) and 48%±1.6% at pH 6.33±0.07 (nominal pH 6.5).

[2] = cited from earlier work; for imidazolyl pKa: Roberts et al. 1982, Krien & Kermici 2000
[3] = pH effect of UCA isomers on incubation buffers; type: physicochemical; conditions: for pH of test solution after UCA supplementation: 3 mM UCA, unadjusted; for effect on pH of HBSS buffer: HBSS adjusted to pH 6.5 prior to UCA addition
Text: As such, UCA resembles small ions (e.g., K^+, Na^+, H^+, […]) which enter the cell and modulate cell functions by altering the physico-chemical micro-environment (pH, ion potential, ion strength) of the cytosol. Therefore, we hypothesized that the high levels of intact UCA may provoke cellular changes simply due to its passive presence in the cytosol as an acid. […] Such a possibility was approached by testing the effect of UCA on pH first in a buffer solution and then in intact cells. […]

[4] = test system: neutrophil cytosol; assay: UCA metabolism in neutrophil cytosol (TCA precipitation, scintillation counting, HPLC); type: in vitro ADME, human
Method: An aminopropyl stationary phase column Lichrosorb NH2, Hibar RT, 250×4 mm, 5 μm (Merck, Darmstadt, Germany) was used. The eluent was a 50% (v/v) mixture of acetonitrile and a solution of 2% (v/v) acetic acid and 0.5% (w/v) ammonium acetate in water (pH ca. 5). The isomers were detected at 268 nm, and the retention times were Tr(cis) 3.7 min and Tr(trans) 5.4 min.
Samples were mixed with OptiPhase HiSafe 2 scintillation liquid (EG&G Wallac, Turku, Finland) and [^14C]UCA radioactivity measured in RackBeta 1214 scintillation counter (EG&G Wallac). The counting efficiency was 96.7%±0.12% (mean±SEM, n=48).
Next, we examined whether the [^14C]UCA in the cytosol was metabolized by neutrophils after the uptake by determining how much of the radioactive label was associated with intact UCA. This was carried out by precipitating the cytosolic proteins of [^14C]UCA-labeled neutrophils with 10% trichloracetic acid (TCA) on ice overnight. The amount of radioactive label was then measured both in the precipitate and in the protein-free supernatant by scintillation counting, and the content of intact UCA in the supernatant by HPLC.

[5] = test system: histamine receptors; conditions: Laihia, 1998; cited from earlier work
[6] = Protonation state calculated with the Henderson-Hasselbalch Equation; conditions: pH 6.5
Text: It can be hypothesized that the ability of UCA to acidify cytosol in living cells depends on two major parameters: the pH of the extracellular space and the initial pH of the cytosol. Because UCA is found mainly in the skin, one should consider these two parameters in the context of the physiological environment. It is well known that the human skin has an acid mantle with a surficial pH around 4-6. When the stratum corneum is stripped layer by layer, the pH increases gradually and, after total removal of the stratum corneum, the pH in the remaining epidermis is about 6.9 (Öhman & Vahlquist, 1994). In deeper layers, the almost neutral pH of the interior body is reached. A recent analysis provides evidence that UCA is the major pH-regulating factor in the human stratum corneum (Krien & Kermici 2000). The majority of UCA resides in the stratum corneum; however, a significant amount of UCA diffuses into and evidently also through the (epi)dermis, because elevated levels of cis-UCA can be detected in the urine within 1-4 h following total-body UVB exposure (Kammayer et al. 1997). […] In contrast, at a pH below the imidazolyl pKa's, UCA would be mainly in the protonated form capable of promoting cytosolic acidification upon cell entry. […] To provide experimental support for these hypotheses, we measured the change in cytosolic pH in UCA-treated cells. […]

[7] = test system: neutrophils; assay: Monitoring of intracellular pH (BCECF flow cytometry, nigericin calibration); type: cell-based, human; conditions: for effect on intracellular BCECF signal: extracellular pH adjusted to 7.4
Method: Intracellular pH levels in neutrophils were monitored with flow cytometry utilizing a pH-sensitive fluorescent dye 2′,7′-bis-(2-carboxyethyl)-5-(and-6)-carboxyfluorescein (BCECF, acetoxymethyl ester; Molecular Probes, Leiden, The Netherlands). About 30×10^6 cells were incubated in 10 ml HBSS, pH 7.4, containing 0.35 μM BCECF at 25° C. for 30 min, washed twice in HBSS, and resuspended in 1 ml of 154 mM NaCl. Aliquot (235 μl) of the incubation medium with known UCA concentrations and checked pH was applied to the cells (4.5×10^5 cells/15 μl NaCl) in polystyrene tubes, incubated at 25° C. for about 20 min, and analyzed in a flow cytometer.
Calibration of intracellular pH was performed in situ using the K^+/H^+ ionophore nigericin. An excess of pH calibration buffers (10 mM Pipes, 131 mM KCl, pH adjusted to 6.10, 6.50, 6.80, 7.10, 7.40, and 7.60 or 7.70) and 10 μM nigericin was added to the BCECF-labelled cells in 154 mM NaCl. The cells were kept at room temperature and analysed by flow cytometry within 45 min. Cells incubated with or without UCA were analysed for intracellular pH simultaneously. The pH was adjusted to the same values as those in the calibration buffers. Intracellular pH was determined from a BCECF fluorescence intensity calibration curve.

[8] = pH left unadjusted, nominal pH 6.5
[9] = pH left unadjusted, nominal pH 7.4
[10] = 3 mM UCA, extracellular pH 6.1-7.7, effect below pH 7

SMILES	inhibition of respiratory burst chemiluminescence ([1]; pH adjusted back to 6.5, n=3)	inhibition of respiratory burst chemiluminescence ([1]; pH adjusted back to 7.4)	inhibition of respiratory burst chemiluminescence [1, 8]	inhibition of respiratory burst chemiluminescence [1, 9]	pKa of the carboxyl group ([2]; Roberts 1982)	imidazolyl pKa [2]	pH of test solution after UCA supplementation ([3]; nominal pH 6.5)	pH of test solution after UCA supplementation ([3]; nominal pH 7.4)	effect on pH of HBSS buffer [3]	recovery of [14C]UCA activity in protein-free supernatant ([4]; 10% TCA precipitation of cytosolic proteins, cis n=9, trans n=4)	binding to histamine receptors [5]	fraction in protonated state [6]	effect on intracellular pH (nigericin calibration) ([7]; 0.3 mM UCA, same pH range)	effect on intracellular pH (nigericin calibration) [7, 10]	effect on intracellular BCECF signal ([7]; 3 mM UCA)	recovery of [14C]UCA activity in protein-free supernatant ([4]; human)	fraction in deprotonated state [6] [%]
O=C(O)/C=C\c1c[nH]cn1 [cis-UCA, cis-urocanic acid]	44%±1.3%	15%±8.4%	48%±1.6%	41%±10%	~3.3	~7.0	6.33±0.07	6.60±0.02	almost no effect	102%±3.9%	does not directly bind	over 70%	much smaller effect	lowers the intracellular pH	no significant effect	–	–
O=C(O)C=Cc1c[nH]cn1 [trans-UCA, 3-(1H-imidazol-4-yl)-2-propenoic acid, reference compound]	14%±4.0%	no effect	48%±4.0%	31%±8.4%	–	~6.1	5.87±0.06	6.22±0.02	markedly reduce the pH; also recorded: dropped the pH	–	–	–	–	only a minor effect	no significant effect	100.2%±0.9%	70
